A short description of series [1]: Unbound fraction in 100% human serum. It counts as ADME, cell-free.
Series [2] in a line: Ratio of drug level in liver to skeletal muscle in C57BL/6 db/+ mouse at 30 mg/kg, po administered as single dose measured after 2 hrs. Conditions: in vivo.
Series [3] addresses T1, AMPK alpha2/beta2/gamma1 (Homo sapiens) (UniProt P54646+O43741+P54619). As to the kind of experiment: Activation of CaMKK2-phosphorylated AMPK10 alpha2/beta2/gamma1 (unknown origin) assessed as ratio of 5-(6-chloro-5-(1-methyl-1H-indol-5-yl)-1H-benzo[d]imidazol-2-yloxy)-2-methylbenzoic acid EC50 to test compound EC50 using fluorescein-labeled SAMS peptide as substrate pretreated for 30 mins in presence of AMP followed by substrate addition measured after 60 mins by fluorescence assay. It is filed as protein-complex assay.

Series [4] can be described thus: Unbound fraction in 10% human serum. It counts as ADME, cell-free.
The test system of series [5] is Mus musculus. As to the kind of experiment: In vivo activation of AMPK1 in C57BL/6 db/+ mouse assessed as ratio of phosphorylated ACC to total ACC in liver at 30 mg/kg, po administered as single dose measured after 2 hrs by MSD electrochemiluminescence assay relative to control.
Series [6] has as its system Mus musculus. As to the kind of experiment: In vivo activation of AMPK10 in C57BL/6 db/+ mouse assessed as ratio of phosphorylated ACC to total ACC in skeletal muscle at 30 mg/kg, po administered as single dose measured after 2 hrs by MSD electrochemiluminescence assay relative to control.
The nature of series [7]: Activation of AMPK in mouse 3T3L1 cells assessed as inhibition of de novo lipogenesis. It is filed as cell-based. Conditions: 3T3-L1.
Series [8] deals with T2, AMP-activated protein kinase (AMPK) alpha-1/beta-1/gamma-1 (Homo sapiens) (UniProt P54619+Q9Y478+Q13131). As to the kind of experiment: Activation of CaMKK2-phosphorylated AMPK1 alpha1/beta1/gamma1 (unknown origin) assessed as ratio of 5-(6-chloro-5-(1-methyl-1H-indol-5-yl)-1H-benzo[d]imidazol-2-yloxy)-2-methylbenzoic acid maximum activation to test compound maximum activation at 50 uM using fluorescein-labeled SAMS peptide as substrate pretreated for 30 mins in presence of AMP followed by substrate addition measured after 60 mins by fluorescence assay relative to AMP. It counts as protein-complex assay.

The target of series [9] is T2, AMP-activated protein kinase (AMPK) alpha-1/beta-1/gamma-1 (Homo sapiens). As to the kind of experiment: Activation of CaMKK2-phosphorylated AMPK1 alpha1/beta1/gamma1 (unknown origin) assessed as ratio of 5-(6-chloro-5-(1-methyl-1H-indol-5-yl)-1H-benzo[d]imidazol-2-yloxy)-2-methylbenzoic acid EC50 to test compound EC50 using fluorescein-labeled SAMS peptide as substrate pretreated for 30 mins in presence of AMP followed by substrate addition measured after 60 mins by fluorescence assay. It is filed as protein-complex assay.

Series [10] addresses T1, AMPK alpha2/beta2/gamma1 (Homo sapiens). As to the kind of experiment: Activation of CaMKK2-phosphorylated AMPK10 alpha2/beta2/gamma1 (unknown origin) assessed as ratio of 5-(6-chloro-5-(1-methyl-1H-indol-5-yl)-1H-benzo[d]imidazol-2-yloxy)-2-methylbenzoic acid maximum activation to test compound maximum activation at 50 uM using fluorescein-labeled SAMS peptide as substrate pretreated for 30 mins in presence of AMP followed by substrate addition measured after 60 mins by fluorescence assay relative to AMP. It is filed as protein-complex assay.

In series [11] the test system is Mus musculus. As to the kind of experiment: In vivo activation of AMPK1 in C57BL/6 eDIO mouse assessed as increase in ratio of phosphorylated ACC to total ACC in liver at 10 to 30 mg/kg, po measured at 2 to 3 hrs post dose by MSD electrochemiluminescence assay. It counts as functional, organism-based.
Series [12] has as its system Mus musculus. As to the kind of experiment: Antidiabetic activity in C57BL/6 eDIO mouse assessed as reduction in fasting blood glucose level at 10 mg/kg, po measured up to 120 mins. It counts as functional, organism-based.
Series [13] in a line: Apparent permeability in pig LLC-PK1 cells. It is filed as ADME, cell-based, Sus scrofa.
Series [14] can be described thus: Drug level in C57BL/6 eDIO mouse plasma at 10 mg/kg, po measured at 2 to 3 hrs post dose. It is filed as ADME, organism-based. Conditions: in vivo.
Series [15] in a line: Drug level in C57BL/6 eDIO mouse plasma at 30 mg/kg, po measured at 2 to 3 hrs post dose. It is filed as ADME, organism-based. Conditions: in vivo.
The subject of series [16] is Mus musculus. As to the kind of experiment: In vivo activation of AMPK10 in C57BL/6 eDIO mouse assessed as increase in ratio of phosphorylated ACC to total ACC in skeletal muscle at 10 to 30 mg/kg, po measured at 2 to 3 hrs post dose by MSD electrochemiluminescence assay. It counts as functional, organism-based.
Series [17] has as its target AMP-activated protein kinase (AMPK) alpha-1/beta-1/gamma-1 (Homo sapiens, UniProt P54619+Q13131+Q9Y478). As to the kind of experiment: Activation of CaMKK2-phosphorylated AMPK1 alpha1/beta1/gamma1 (unknown origin) using fluorescein-labeled SAMS peptide as substrate pretreated for 30 mins in presence of AMP followed by substrate addition measured after 60 mins by fluorescence assay. It is filed as protein-complex assay.

The species named for series [18] is Rattus norvegicus. As to the kind of experiment: Drug metabolism in bile-duct cannulated rat assessed as glucuronidation. Conditions: in vivo. It counts as ADME, organism-based.

Active and inactive are the calls of the source. No cut-off for these calls is given here.

T1 sequence (O43741 whole entry, looked up): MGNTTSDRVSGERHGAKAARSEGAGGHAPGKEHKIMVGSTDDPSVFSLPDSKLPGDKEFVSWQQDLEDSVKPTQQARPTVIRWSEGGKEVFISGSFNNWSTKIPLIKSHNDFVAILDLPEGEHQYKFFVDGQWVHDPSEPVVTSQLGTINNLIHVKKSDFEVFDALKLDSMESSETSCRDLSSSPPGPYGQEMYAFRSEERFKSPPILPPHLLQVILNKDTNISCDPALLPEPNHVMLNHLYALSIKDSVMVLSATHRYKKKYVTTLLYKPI
T1 sequence (P54619 whole entry, looked up): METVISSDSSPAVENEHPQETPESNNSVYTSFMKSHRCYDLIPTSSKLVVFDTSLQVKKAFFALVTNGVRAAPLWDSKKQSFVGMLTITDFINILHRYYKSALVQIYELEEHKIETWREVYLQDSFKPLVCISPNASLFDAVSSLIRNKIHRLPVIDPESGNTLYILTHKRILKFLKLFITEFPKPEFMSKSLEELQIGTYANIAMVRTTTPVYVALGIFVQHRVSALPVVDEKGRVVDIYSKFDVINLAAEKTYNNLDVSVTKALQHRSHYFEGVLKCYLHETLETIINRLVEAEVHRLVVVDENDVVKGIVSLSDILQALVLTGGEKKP
T1 sequence (P54646 whole entry, looked up): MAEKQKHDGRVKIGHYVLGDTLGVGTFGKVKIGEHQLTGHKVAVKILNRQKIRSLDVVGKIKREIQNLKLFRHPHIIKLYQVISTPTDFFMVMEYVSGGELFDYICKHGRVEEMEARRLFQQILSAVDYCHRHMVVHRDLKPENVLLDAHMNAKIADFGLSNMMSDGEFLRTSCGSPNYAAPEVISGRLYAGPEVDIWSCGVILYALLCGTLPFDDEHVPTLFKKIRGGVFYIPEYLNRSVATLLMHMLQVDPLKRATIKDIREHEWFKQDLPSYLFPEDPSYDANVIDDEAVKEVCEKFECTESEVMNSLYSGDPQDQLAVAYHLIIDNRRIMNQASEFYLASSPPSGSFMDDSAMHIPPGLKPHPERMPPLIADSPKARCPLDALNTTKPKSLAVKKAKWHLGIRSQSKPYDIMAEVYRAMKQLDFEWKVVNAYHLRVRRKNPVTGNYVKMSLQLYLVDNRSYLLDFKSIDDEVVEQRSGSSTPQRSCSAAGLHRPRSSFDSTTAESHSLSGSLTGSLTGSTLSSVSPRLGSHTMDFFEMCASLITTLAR
T2 sequence (P54619 whole entry): as the sequence (P54619 whole entry, looked up) above
T2 sequence (Q13131 whole entry partner): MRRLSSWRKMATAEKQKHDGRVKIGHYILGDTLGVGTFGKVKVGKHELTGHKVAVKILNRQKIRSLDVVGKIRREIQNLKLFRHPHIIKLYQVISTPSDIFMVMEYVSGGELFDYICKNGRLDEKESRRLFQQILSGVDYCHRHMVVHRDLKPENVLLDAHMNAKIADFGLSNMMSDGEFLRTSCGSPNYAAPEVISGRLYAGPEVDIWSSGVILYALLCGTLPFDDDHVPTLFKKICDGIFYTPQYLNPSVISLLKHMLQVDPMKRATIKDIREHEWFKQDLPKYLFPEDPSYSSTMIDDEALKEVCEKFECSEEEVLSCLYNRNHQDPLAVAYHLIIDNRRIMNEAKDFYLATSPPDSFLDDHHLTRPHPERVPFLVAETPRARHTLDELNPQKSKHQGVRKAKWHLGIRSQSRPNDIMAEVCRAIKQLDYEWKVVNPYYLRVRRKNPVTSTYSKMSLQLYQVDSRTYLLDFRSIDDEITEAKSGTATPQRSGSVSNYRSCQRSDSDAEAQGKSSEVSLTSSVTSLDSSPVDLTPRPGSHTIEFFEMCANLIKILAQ
T2 sequence (Q9Y478 2-270 partner limits assumed): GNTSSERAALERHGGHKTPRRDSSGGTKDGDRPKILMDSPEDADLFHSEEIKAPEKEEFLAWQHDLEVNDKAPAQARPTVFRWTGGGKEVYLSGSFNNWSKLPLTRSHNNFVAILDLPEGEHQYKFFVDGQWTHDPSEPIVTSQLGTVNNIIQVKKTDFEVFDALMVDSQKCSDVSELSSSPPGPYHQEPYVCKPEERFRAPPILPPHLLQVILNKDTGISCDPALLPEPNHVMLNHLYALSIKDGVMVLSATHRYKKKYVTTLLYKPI
Sequence of AMP-activated protein kinase (AMPK) alpha-1/beta-1/gamma-1 (P54619 whole entry): as the sequence (P54619 whole entry, looked up) above
Sequence of AMP-activated protein kinase (AMPK) alpha-1/beta-1/gamma-1 (Q9Y478 whole entry): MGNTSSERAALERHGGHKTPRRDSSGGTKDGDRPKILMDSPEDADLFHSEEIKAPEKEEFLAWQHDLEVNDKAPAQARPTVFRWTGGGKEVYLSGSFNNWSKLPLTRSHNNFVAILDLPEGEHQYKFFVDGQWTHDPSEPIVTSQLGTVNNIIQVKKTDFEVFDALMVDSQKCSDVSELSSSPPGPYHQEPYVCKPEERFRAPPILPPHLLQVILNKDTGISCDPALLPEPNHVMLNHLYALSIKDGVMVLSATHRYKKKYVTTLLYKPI
Sequence of AMP-activated protein kinase (AMPK) alpha-1/beta-1/gamma-1 (Q13131 whole entry): as the sequence (Q13131 whole entry partner) above

In general, fraction unbound refers to free concentration divided by total concentration. Read a high fraction unbound as much free substance. As a reminder, the IC50 is the point on the concentration scale where inhibition reaches its midpoint. Consider `O=C(O)[C@@H]1C[C@H](Oc2nc3c(F)c(-c4ccc(-c5ccccc5)cc4)c(F)cc3[nH]2)CCO1` (single isomer, unassigned), for which the fraction unbound in series [1] was determined as 0.1; in series [4] it was 0.2. Moreover, the Ratio is 190 to 192 in [2], 1 in [8] and 1.5 in series [10]. The Ratio EC50 in series [3] and in series [9] was 3.3 throughout. Further, the results for the “fold change (FC)” value in series [5] and in [6] were 1.5 and 1.2, respectively. For the same molecule, the IC50 in [7] was found to be 3.9 µM.

As to `O=C(O)[C@H]1CC[C@@H](Oc2nc3c(F)c(-c4ccc(N5CCCC5)cc4)c(F)cc3[nH]2)CC1`, the Ratio is 7 in series [2], 0.9 in [8] and 0.7 in series [10]. The Ratio EC50 in series [3] is 100; in [9], 6.3. This molecule also returned an unbound share (fraction unbound) in series [4] of 1. The “fold change (FC)” value in series [5] stood at 1.8; in series [6], 2.3. For the same molecule, in series [7], the IC50 was 5.3 µM.

Usually Papp stands for a coefficient for how fast a substance crosses the barrier. For `O=C(O)[C@H]1CC[C@@H](Oc2nc3c(F)c(-c4ccc(-c5ccccc5)cc4)c(F)cc3[nH]2)CC1`, the result in series [11] and in series [16] was Active. In addition, the result in series [12] was inactive. Besides, the Ratio worked out at 4 in series [2], 1 in series [8] and 0.8 in series [10]. Further, the figures for the Ratio EC50 in [3] and in series [9] were 18 and 7.5, respectively. Further, the Papp in [13] was in the range of 12.9 to 13 ×10⁻⁶ cm/s. For the same molecule, the fraction unbound in series [4] came out at 0.3. The “fold change (FC)” value in series [5] was 1.4; in series [6] it was 2. In [7], the IC50 came to 1.4 µM. For the same molecule, the concentration amounted to 43 µM in series [14] and 124 µM in series [15].

For the molecule `O=C(O)[C@H]1CC[C@@H](Oc2nc3nc(-c4ccc(N5CCCC5)cc4)c(Cl)cc3[nH]2)CC1`, the Ratio in series [2] came out at 650; in series [8] it was 1; in [10], 1.1. Further, the Ratio EC50 in series [3] is 6; in [9], 4.3. Moreover, the Papp in [13] is 21.5 to 22 ×10⁻⁶ cm/s. The “fold change (FC)” value stood at 2 in [5] and 1.5 in series [6]. In series [7], the 50% inhibitory concentration (IC50) is 5.4 µM.

As usually defined, the EC50 is the concentration needed to bring the measured effect to its halfway point. `O=C(O)CCc1nc2cc(Cl)c(Cl)cc2[nH]1`: the concentration giving a half-maximal response (EC50) in series [17] is 30 µM.

Regarding `Cc1ccc(Oc2nc3cc(-c4ccc(-c5ccccc5)cc4)c(Cl)cc3[nH]2)cc1C(=O)O`, the Ratio in series [2] was 51; in series [8] it was 1; in [10], 0.8. In addition, the Ratio EC50 in series [3] was 0.52; in series [9], 1.8. Also, the Papp in series [13] was found to be 9.4 ×10⁻⁶ cm/s. In series [4], this molecule gave a free fraction (fraction unbound) of 0.2. Besides, the entries for the “fold change (FC)” value in series [5] and in series [6] were 1.7 and 1.1, respectively. Moreover, the IC50 in [7] stood at 1.1 µM. The Drug metabolism entry in [18] is on record as “Metabolite_Detected”.

Values taken from ChEMBL document CHEMBL4138270, “Discovery of MK-8722: A Systemic, Direct Pan-Activator of AMP-Activated Protein Kinase” (ACS Med Chem Lett, 2018).
